In ChEMBL document CHEMBL4613322, “HOPPI-NMR: Hot-Peptide-Based Screening Assay for Inhibitors of Protein-Protein Interactions by NMR” (ACS Med Chem Lett, 2020):
pKd: −log10 of the molar value. In brackets after ≈: the same amount, converted by molar mass. Peptide text beside a SMILES is read from it.

Tests used:
[1] = target: T1, AP-1 complex subunit beta-1 (Homo sapiens, UniProt Q10567); experiment: Binding affinity to beta-adaptin 1 (unknown origin) by fluorescence polarization assay
T1 sequence (Q10567 whole entry): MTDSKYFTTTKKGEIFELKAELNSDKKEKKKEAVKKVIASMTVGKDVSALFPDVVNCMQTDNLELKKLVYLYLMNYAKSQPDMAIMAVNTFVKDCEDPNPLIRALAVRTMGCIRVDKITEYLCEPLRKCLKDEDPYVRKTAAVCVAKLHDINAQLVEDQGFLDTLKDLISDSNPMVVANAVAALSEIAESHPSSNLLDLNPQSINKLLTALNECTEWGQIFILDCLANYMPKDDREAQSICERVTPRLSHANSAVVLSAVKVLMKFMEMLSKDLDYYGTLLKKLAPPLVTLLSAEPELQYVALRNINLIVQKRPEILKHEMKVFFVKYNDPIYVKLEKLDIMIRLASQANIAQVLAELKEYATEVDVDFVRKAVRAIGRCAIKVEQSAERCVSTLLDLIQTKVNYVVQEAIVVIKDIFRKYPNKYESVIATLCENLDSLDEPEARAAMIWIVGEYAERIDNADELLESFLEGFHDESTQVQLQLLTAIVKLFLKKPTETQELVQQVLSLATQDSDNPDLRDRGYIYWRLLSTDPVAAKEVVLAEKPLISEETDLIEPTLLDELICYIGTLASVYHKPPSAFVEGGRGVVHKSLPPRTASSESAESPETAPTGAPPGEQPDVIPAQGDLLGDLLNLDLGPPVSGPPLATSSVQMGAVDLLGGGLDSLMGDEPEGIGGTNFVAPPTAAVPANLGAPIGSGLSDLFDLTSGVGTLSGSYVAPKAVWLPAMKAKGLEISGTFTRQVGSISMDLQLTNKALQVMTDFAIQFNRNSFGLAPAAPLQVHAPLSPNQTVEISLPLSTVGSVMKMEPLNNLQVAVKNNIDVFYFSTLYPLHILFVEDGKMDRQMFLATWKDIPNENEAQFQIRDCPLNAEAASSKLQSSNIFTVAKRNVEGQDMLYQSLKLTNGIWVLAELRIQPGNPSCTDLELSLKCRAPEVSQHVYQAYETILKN

Bcl-2-like protein 1 = Bcl-2-like protein 1 (Mus musculus, UniProt Q64373); experiment: Binding affinity to BCL-xl in murine B-cell lymphoma assessed as inhibition of BCL-xl/Bax protein-protein interaction
Bcl-2-like protein 1, sequence (Q64373 whole entry): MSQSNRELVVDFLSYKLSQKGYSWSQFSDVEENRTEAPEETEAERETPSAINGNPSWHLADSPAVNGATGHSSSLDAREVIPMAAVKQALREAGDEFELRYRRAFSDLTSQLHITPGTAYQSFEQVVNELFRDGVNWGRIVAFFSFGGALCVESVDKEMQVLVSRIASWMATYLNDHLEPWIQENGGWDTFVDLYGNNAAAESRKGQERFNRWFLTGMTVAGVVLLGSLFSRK

[2] = Solubility of compound in PBS; assay type: physicochemical

Q: With `CC[C@H](C)[C@H](NC(=O)[C@H](CC(=O)O)NC(=O)[C@H](CC(=O)O)NC(=O)[C@@H](N)CC(=O)O)C(=O)N[C@H](C(=O)N[C@@H](Cc1ccccc1)C(=O)N[C@@H](CCC(=O)O)C(=O)N[C@@H](CC(=O)O)C(=O)N[C@@H](Cc1ccccc1)C(=O)N[C@@H](C)C(=O)N[C@@H](CCCNC(=N)N)C(=O)N[C@@H](CCC(N)=O)C(=O)N[C@@H](CCCNC(=N)N)C(=O)N[C@@H](CC(C)C)C(=O)N[C@@H](CCCCN)C(=O)NCC(=O)N[C@@H](CCSC)C(=O)N[C@@H](CCCCN)C(=O)N[C@@H](CC(=O)O)C(=O)N[C@@H](CC(=O)O)C(=O)O)C(C)C` (H-DDDIVFEDFARQRLKGMKDD-OH) as the compound, how does the pKd [1] read?
A: Its pKd is 5.68.

Q: With `CC[C@H](C)[C@H](NC(=O)[C@H](CCCN=C(N)N)NC(=O)[C@H](CCCCN)NC(=O)[C@H](CC(C)C)NC(=O)[C@H](CS)NC(=O)[C@H](CCC(=O)O)NC(=O)[C@H](CO)NC(=O)[C@H](CC(C)C)NC(=O)[C@H](CCCCN)NC(=O)[C@@H](N)CCCCN)C(=O)NCC(=O)N[C@@H](CC(=O)O)C(=O)N[C@@H](CCC(=O)O)C(=O)N[C@@H](CC(C)C)C(=O)N[C@@H](CC(=O)O)C(=O)N[C@@H](CO)C(=O)O` (H-KKLSECLKRIGDELDS-OH) as the compound, how does the pKd (Bcl-2-like protein 1) read?
A: Its pKd is 4.89.

Q: Which solubility [2] does the source give for `COc1ccc(C2=N[C@@H](c3ccc(Cl)cc3)[C@@H](c3ccc(Cl)cc3)N2C(=O)N2CCNC(=O)C2)c(OC(C)C)c1` [NUTLIN-3] here?
A: Its solubility is 100 µM (≈ 58.2 µg/mL).
